In brackets after ≈: the same amount, converted by molar mass.
Experiment: Saturation solubility of taxol
Format: physicochemical
Conditions: pH 7.4, aqueous buffer

solubility: 0.32 µg/mL (≈ 0.375 µM)
SMILES: CC(=O)O[C@H]1C(=O)[C@@]2(C)[C@H]([C@H](OC(=O)c3ccccc3)[C@]3(O)C[C@H](OC(=O)[C@H](O)[C@@H](NC(=O)c4ccccc4)c4ccccc4)C(C)=C1C3(C)C)[C@]1(OC(C)=O)CO[C@@H]1C[C@@H]2O [taxol]
